Laboratory results as given in patent US20140128472A1, “TREATMENT AND PREVENTION OF DISEASES RELATED TO OXIDATIVE STRESS” (UNIVERSITY OF PÉCS, priority 2011, published 2014).
Entries after “also recorded” stand apart in the source; their conditions may differ.

Columns and labels:
3T3-L1 adipocytes = test: Insulin-dependent uptake of deoxy-D-glucose 2-[1 2-3H(N)] into 3T3-L1 adipocytes; assay type: cell-based, mouse
Procedure: (§1) Primary cultures of mouse embryo fibroblasts (3T3-L1) were purchased from ATCC (Manassas, US). Early passages of 3T3-L1 fibroblasts were cultured in Dulbecco's modified Eagle medium ((DMEM, Invitrogen, CAT number: 41966-029; Sigma Aldrich CAT number: D6046) supplemented with 10% Fetal Bovine Serum (Gibco, CAT number: 16170-078), 100 U/ml penicillin and 0.1 mg/ml streptomycin (Gibco, CAT number: 15070-063) and 398 nM p-, m-, or o-Tyr. DMEM contained 25 or 5 mM glucose (depending on the experiment), L-glutamine, and pyruvate. Cells were grown in a humidified incubator at 37° C. and 5% CO2. Differentiation medium consisted of DMEM supplemented with 10% Fetal Bovine Serum (FBS, Gibco, Csertex, Budapest, Hungary, CAT number: 10106-169) (FBS), to which a cocktail was added containing […] isobuthylmethylxanthine (Sigma Aldrich, CAT number: I 5879), 0.17 nM insulin (Sigma Aldrich, CAT number: I 9278) and 250 nM dexamethasone (Sigma Aldrich, CAT number: 861871). From Day 4 onward, cells were maintained in DMEM/10% FBS containing […] insulin with a media change every other day until experimental treatments were initiated. For all treatments, cells were incubated overnight in serum-deprived medium after 90% of the cell population reached the adipocyte phenotype.
Cells were incubated in glucose free DMEM (Gibco, Csertex, Hungary) for 30 minutes, then treated with 2, 20, 200 or 400 nmol/l insulin for 100 minutes. Simultaneously 1 μCi/ml deoxy-D-glucose 2-[1 2-3H(N)] (3.7×104 Bq/ml) (Izotóp Intézet, Hungary) was added to the plates for 100 minutes Cells were scraped into the medium and centrifuged for 5 minutes at 1000 rpm. The sediment was dissolved in 70 μl of lysis-buffer and glucose uptake was assessed by scintillation counting measuring 30 μl of the sample with a Beckman LS 5000 TD counter in counts per minute (CPM) for five minutes each, using an average activity as the outcome. Samples were frozen overnight at −70° C. and protein concentration was measured using a Hitachi spectrophotometer. Results were normalized for protein content (Kaddai2009).

Akt (protein kinase B) = test: Insulin-induced phosphorylation of Akt in 3T3-L1 adipocytes (Western blot); assay type: cell-based, mouse; settings: cells grown on m-Tyr or o-Tyr; insulin 200 and 400 nmol/l
Procedure: as §1
Following the treatment cells were washed twice with Saline (4° C.) to remove any trace of the medium, then exposed to 80 μL lysis buffer/plate, containing 1.15% Triton X, 1M Trisbase, pH 7.4, 0.5 M EDTA, pH 8, 0.2 M EGTA, pH 7, 0.1 M dithiothreitol (DTT), 5 mg/ml phenylmethylsulfonyl fluoride (PMSF), 0.1 M Na3VO4, 5 mg/ml leupeptin, 5 mg/ml aprotinin, Phoshatase Inhibitor Coctail 1 and 2 (Sigma Aldrich, CAT number: P2850 and P5726). Adypocytes were scraped off mechanically and then frozen at −70° C.
The samples of EC lysates were sonicated (2 min) and centrifuged (10 min, 13,000 rpm, at 4° C.). Protein content of samples was determined by the Bradford method using bovine serum albumin as a standard Bio-Rad Benchmark Plus. Samples were solubilized in a buffer of 100 mM Tris-HCl (pH 6.8), 4.0% sodium dodecyl sulphate (SDS), 20% glycerol, 200 mM DTT, and 0.2% bromophenol blue. […]
Membranes were incubated overnight with the immunoglobulin G (IgG) monoclonal antibodies diluted to 1:1000 in TBS-T (0.1%), containing 5% bovine serum (BS). […] Blots were detected using enhanced chemiluminescence (ECL; Pierce Biotech, Bio-Rad, Budapest, Hungary). Computerized densitometry (integrated optical density) of the specific bands was analyzed with Scion Image for Windows Software. […]

[1] = test system: thoracic and abdominal aorta, renal and femoral arteries; test: Insulin-induced relaxation of isolated arterial segments after oral tyrosine isomer supplementation of rats; assay type: in vivo, Sprague-Dawley rats
Procedure: The experiments were carried out with the permission of the Hungarian Local Animal Experiment Committee. Shortly after weaning male CFY rats (a strain of the Sprague-Dawley rat) were placed in individual cages and held on regular diet. After two hours of fasting animals (4-5 week-old, 80-140 g) were loaded with 1.76 mg/die para-, meta- or ortho-tyrosine (p-, m-, o-tyr; Sigma-Aldrich, Inc., St. Louis, Mo. 63178, USA) dissolved in saline or vehicle (saline only) by gavage (per os) six days of the week. After one month treatment, animals were either anaesthetized with ether and were decapitated with a guillotine or p-, m-, o-tyr and vehicle supplementation was discontinued (“washout” period) and they were sacrificed […] (FIG. 8.A). The descending thoracic and abdominal aorta, renal and femoral arteries were removed and cleaned from connective tissue (FIG. 19). Sections were immediately hydrolyzed for HPLC analysis or were used for vascular reactivity studies.
In further tyrosine isomer incorporation studies when effects of chronic oral p-Tyr and o-Tyr supplementation of rats on the o-Tyr level and insulin-induced relaxation of isolated arterial segments were studied, 18 Male Sprague-Dawley rats (5-6 week-old) were used. Rats were orally supplied with either 1.76 mg/die of p-Tyr or o-Tyr or vehicle during six days per week for four weeks. […] At the end of four-week treatment, HPLC and vasomotor studies were performed. In another group of rats, p-Tyr/o-Tyr supplementation was discontinued for four weeks (“washout” period), after which they were sacrificed for HPLC and vasomotor studies.
The modified method of Fésüs et al. (Fésüs2007) was used. The distal parts of the vessels were dissected into 2 mm long segments in ice-cold Krebs buffer and rings were mounted on two stainless steel wires (40 μm in diameter) in a Danish Multimyograph Model 610M (DMT-USA Inc., Atlanta, Ga., USA). Vessels were bathed in Krebs buffer (containing 119 mM NaCl, 4.7 mM KCl, 1.2 mM KH2PO4, 25 mM NaHCO3, 1.2 mM Mg2SO4, 11.1 mM glucose, 1.6 mM CaCl2*2H2O, pH 7.4) and gassed with 5% CO2 and 95% O2 at 37° C. The resting tension/internal circumference relationship for each vessel was determined and then the internal circumference was set to 0.9×L100, where L100 is the internal circumference the vessel would have had in vivo when relaxed under a transmural pressure of 100 mmHg After this normalization procedure vessels were allowed to stabilize for 30 min, and then isometric tension was continuously recorded. Rings were preconstricted with 100 nM epinephrine. After reaching a stabile contraction plateau, relaxant responses to increasing doses of insulin were assessed. The rate of relaxation was expressed as percentage of the contraction evoked by epinephrine (100%). Para-, meta-, ortho-tyrosine or vehicle were added to the vessel chamber 10 minutes before the addition of epinephrine and 30 minutes before the addition of insulin.

Akt (PKB) = test: Erythropoietin-dependent phosphorylation of Akt (PKB) in 3T3-L1 adipocytes (Western blot); assay type: cell-based, mouse; settings: 25 mM glucose; various concentrations of erythropoietin

## N[C@@H](Cc1cccc(O)c1)C(=O)O [m-Tyr, Meta-L-tyrosine]
3T3-L1 adipocytes; 72-72 mg/l m-Tyr or o-Tyr and p-Tyr, insulin 400 nM
  Insulin-induced glucose uptake at equimolar concentrations with p-Tyr: fully inhibit insulin-induced glucose uptake; also recorded: insulin had no effect on glucose uptake at all
3T3-L1 adipocytes; cells grown 11 days on medium with the tyrosine isomer + 5 mM glucose, insulin 2, 20, 200, 400 nM
  Insulin-dependent deoxy-D-glucose uptake: no insulin effect could be verified
3T3-L1 adipocytes; cells grown on m-Tyr- or o-Tyr-containing medium (72 mg/l) for different time periods, no insulin
  Baseline glucose uptake: did not show a marked change
3T3-L1 adipocytes; m-Tyr or o-Tyr 72 mg/l for different time periods, insulin 400 nM, time-dependent manner
  Insulin-induced glucose uptake, time dependence: blocked
3T3-L1 adipocytes; m-Tyr or o-Tyr 2.25-72 mg/l with p-Tyr 72 mg/l, insulin 400 nM
  Ability to inhibit insulin-induced glucose uptake, dependence on concentration: concentration-dependent
Akt (protein kinase B)
  Insulin-induced Akt phosphorylation: inhibited the insulin-induced Akt-phosphorylation; also recorded: could not be significantly enhanced by insulin
[1]; 4th week, 1.76 mg/die per os, compared to control
  Insulin-induced relaxation, abdominal aorta, femoral (and renal) arteries: significantly diminished response to insulin
[1]; 4th week, 1.76 mg/die per os, compared to control/other groups
  Insulin-induced relaxation, thoracic aorta: did not observe any significant further decline of response to insulin
[1]; 8th week, 4 weeks washout, all segments
  Chronic effects on insulin-induced vasorelaxation after washout: completely abolished
Akt (PKB)
  EPO-dependent Akt phosphorylation: inhibited the normal increase in the Akt phosphorylation
